Values quoted from earlier work as cited in publication PMC4261083, “An atypical residue in the pore of Varroa destructor GABA-activated RDL receptors affects picrotoxin block and thymol modulation” (Insect Biochemistry and Molecular Biology, 2014).

Target: Tetranychus RDL receptors
Set-up: method as in Asahi et al., 2014
Conditions: expressed in Xenopus oocytes, ref Asahi et al., 2014, cited from earlier work

SMILES	IC50 (read-out: IC50 for block of Tetranychus RDL receptors)	Sensitivity of Tetranychus RDL receptors to fipronil
Cc1cc(C2=NOC(c3cc(Cl)cc(Cl)c3)(C(F)(F)F)C2)ccc1C(=O)NCC(=O)NCC(F)(F)F (centres unmarked) [fluralaner]	~10 nM	–
N#Cc1nn(-c2c(Cl)cc(C(F)(F)F)cc2Cl)c(N)c1[S+]([O-])C(F)(F)F (centres unmarked) [fipronil]	–	resistant
